Assay results from patent US6593340B1, “Pharmaceutical compositions containing N-propargylphentermine and related analogs to treat neurodegeneration and/or depression” (CV Technologies, Inc., priority 2000, dated 2003).
Where two headings read alike, the source gives them in different places.

Key:
[1] = molecular target: T1, rat brain monoamine oxidase-A (Rattus norvegicus, UniProt P21396); assay: Monoamine oxidase-A-inhibiting activity in vitro (radiochemical, 5-hydroxytryptamine substrate); format: biochemical
T1 construct: incubated in appropriately diluted homogenates of rat brain or liver; from tissue; host or cells: rat brain or liver homogenate
T1 sequence (P21396 1-526): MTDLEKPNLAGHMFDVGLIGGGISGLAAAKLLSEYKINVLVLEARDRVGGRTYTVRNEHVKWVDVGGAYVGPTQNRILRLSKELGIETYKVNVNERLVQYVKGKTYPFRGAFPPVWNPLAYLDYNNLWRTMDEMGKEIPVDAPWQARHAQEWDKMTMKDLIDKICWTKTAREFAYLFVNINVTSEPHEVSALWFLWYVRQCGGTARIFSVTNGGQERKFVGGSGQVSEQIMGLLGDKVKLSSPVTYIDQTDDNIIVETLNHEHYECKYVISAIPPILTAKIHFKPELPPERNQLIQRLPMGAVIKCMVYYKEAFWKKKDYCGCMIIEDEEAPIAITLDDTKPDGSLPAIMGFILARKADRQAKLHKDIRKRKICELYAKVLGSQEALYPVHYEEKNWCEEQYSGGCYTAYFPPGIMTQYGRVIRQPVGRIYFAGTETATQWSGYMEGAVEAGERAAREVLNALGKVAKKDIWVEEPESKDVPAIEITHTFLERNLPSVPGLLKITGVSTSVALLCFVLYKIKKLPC
Description: The compounds were evaluated for in vitro monoamine oxidase-A-inhibiting activity using the radiochemical procedure of Lyles and Callingham (1982) employing radiolabeled 5-hydroxytryptamine as substrate for monoamine oxidase-A. Various concentrations of the compounds of interest were incubated in appropriately diluted homogenates of rat brain or liver in a 0.2 M potassium phosphate buffer. Incubations proceeded at 37° C. for 10 minutes. Incubation was terminated by the addition of acid and the radiolabeled product (5-hydroxyindoleacetic acid) was extracted and quantified by liquid scintillation counting procedures. […] The percent inhibition of monoamine oxidase-A activity compared to controls containing no drug was calculated.

[2] = test system: rat brain and liver monoamine oxidase-A; assay: Monoamine oxidase-A-inhibiting activity ex vivo; format: in vivo; details: for % Inhibition Monoamine Oxidase-A: 7 days following injection, i.p., 10 mg/kg combined with DSP4 50 mg/kg; for effect on monoamine oxidase-A activity in the brain or liver: seven days after administration
[3] = molecular target: T2, rat brain monoamine oxidase-B (Rattus norvegicus, UniProt P19643); assay: Monoamine oxidase-B-inhibiting activity in vitro (radiochemical, β-phenylethylamine substrate); format: biochemical
T2 construct: incubated in appropriately diluted homogenates of rat brain or liver; from tissue; host or cells: rat brain or liver homogenate
T2 sequence (P19643 1-520): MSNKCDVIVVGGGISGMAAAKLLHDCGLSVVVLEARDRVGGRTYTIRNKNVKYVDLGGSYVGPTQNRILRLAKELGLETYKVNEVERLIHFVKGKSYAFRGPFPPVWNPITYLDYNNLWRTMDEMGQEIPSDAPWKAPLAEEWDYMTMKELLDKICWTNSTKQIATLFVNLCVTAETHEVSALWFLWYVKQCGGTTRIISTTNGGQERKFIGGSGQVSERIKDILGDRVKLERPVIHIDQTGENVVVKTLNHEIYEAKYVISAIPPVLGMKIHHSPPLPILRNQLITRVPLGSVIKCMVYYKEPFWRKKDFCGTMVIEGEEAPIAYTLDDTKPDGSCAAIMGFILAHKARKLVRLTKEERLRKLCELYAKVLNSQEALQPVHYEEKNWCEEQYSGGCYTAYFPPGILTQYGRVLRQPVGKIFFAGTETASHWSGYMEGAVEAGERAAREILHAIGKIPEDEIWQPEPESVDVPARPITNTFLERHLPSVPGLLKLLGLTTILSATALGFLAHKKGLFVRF
Description: The compounds were evaluated for in vitro monoamine oxidase-B inhibiting activity using the radiochemical procedure of Lyles and Callingham (1982) employing radiolabeled β-phenylethylamine as substrate for monoamine oxidase-B. Various concentrations of the compounds of interest were incubated in appropriately diluted homogenates of rat brain or liver in a 0.2 M potassium phosphate buffer. Incubations proceeded at 37° C. for 10 minutes. Incubation was terminated by the addition of hydrochloric acid and the radiolabeled product (phenylacetic acid) was extracted and quantified by liquid scintillation counting procedures. […] The percent inhibition of monoamine oxidase-B activity compared to controls containing no drug was calculated. Reference: Lyles, G. A. and Callingham, B. A. (1982). In vitro and in vivo inhibition by benserazide of clorgyline-resistant amine exodiases in rat cardiovascular tissues. Biochem. Pharmacol, 31:1417-1424.

[4] = test system: rat brain and liver monoamine oxidase-B; assay: Monoamine oxidase-B-inhibiting activity ex vivo; format: in vivo; details: for % Inhibition Monoamine Oxidase-B: 7 days following injection, i.p., combined with DSP4 50 mg/kg; for effect on monoamine oxidase-B activity in the brain or liver: seven days after administration
Description: The compounds were evaluated for ex vivo monoamine oxidase-B-inhibiting activity using the radiochemical procedure of Lyles and Callingham (1982) employing radiolabeled β-phenylethylamine as substrate for monoamine oxidase-B. The compounds of interest were injected intraperitoneally in water. Animals were killed by decapitation and the brains and livers immediately removed and frozen until assay for monoamine oxidase-B activity. Tissues were homogenized and appropriately diluted in buffer prior to incubation. Incubations proceeded at 37° C. for 10 minutes. Incubation was terminated by the addition of acid and the radiolabeled product (phenylacetic acid) was extracted and quantified by liquid scintillation counting procedures. […] The percent inhibition of monoamine oxidase-B activity compared to controls containing no drug was calculated. Reference: Lyles, G. A. and Callingham, B. A. (1982). […] Biochaem. Pharmacol. 31:1417-1424.
Neuroprotectant activity was evaluated by examining the prevention of DSP-4 induced noradrenaline depletion in mouse hippocampus as described previously (Yu et al., 1994). Briefly, mice were injected (i.p.) with either water or potential neuroprotectants (10 mg/kg in water). One hour later they were injected with either water or DSP-4 (50 mg/kg in water). One week later the mice were killed and the brains removed and the hippocampus dissected out. The hippocampus was frozen and saved for estimation of noradrenaline and other amine neurotransmitters and their metabolites (Sloley and Goldberg, 1991). The rest of the brain and the liver were frozen and retained for estimation of monoamine oxidase activities ex vivo as described earlier. […] 63:1820-1828. Sloley, B. D. and Goldberg J. I. (1991), Determination of y-glutamyl conjugates of monoamines by means of high-performance liquid chromatography with electrochemical detection and application to gastropod tissues, J. Chromatog. 567:49-56.

[5] = test system: DSP-4 induced noradrenaline depletion in mouse hippocampus; assay: Prevention of DSP-4 neurotoxicity ex vivo (noradrenaline depletion); format: in vivo; details: 10 mg/kg i.p.; for % NA Restoration: then DSP-4 50 mg/kg one hour later, one week
Description: Neuroprotectant activity was evaluated by examining the prevention of DSP-4 induced noradrenaline depletion in mouse hippocampus as described previously (Yu et al., 1994). Briefly, mice were injected (i.p.) with either water or potential neuroprotectants (10 mg/kg in water). One hour later they were injected with either water or DSP-4 (50 mg/kg in water). One week later the mice were killed and the brains removed and the hippocampus dissected out. The hippocampus was frozen and saved for estimation of noradrenaline and other amine neurotransmitters and their metabolites (Sloley and Goldberg, 1991). The rest of the brain and the liver were frozen and retained for estimation of monoamine oxidase activities ex vivo as described earlier. […] References: Yu, P. H., Davis, B. A., Fang, J. and Boulton, A. A. (1994), Neuroprotective effect of some monoamine oxidase-B inhibitors against DSP-4 induced noradrenaline depletion in the mouse hippocampus, J. Neurochem. 63:1820-1828. Sloley, B. D. and Goldberg J. I. (1991), Determination of y-glutamyl conjugates of monoamines by means of high-performance liquid chromatography with electrochemical detection and application to gastropod tissues, J. Chromatog. 567:49-56.

[6] = test system: noradrenaline uptake into rat hippocampal prisms; assay: Inhibition of noradrenaline uptake in vitro; format: cell-based; set-up: dose or concentration left out as unconfirmed
Description: The ability of N-propargylphetermine and related derivatives to inhibit monoamine uptake was evaluated in vitro by examining the effects of said compounds on the uptake of radiolabeled noradrenaline and serotonin into fresh rat hippocampal and striatal prisms, respectively according to the method described in Martin et al., (1978). Animals were killed by decapitation and the hippocampus or striatum were removed and placed in ice cold incubation medium. Prisms were prepared using a tissue chopper, resuspended in 800 volumes of incubation medium containing 12.5 μM nialamide to inhibit amine metabolism and stored on ice until used. 0.8 ml of ice cold prism of suspension per test tube was used. Each test tube was pre-incubated for 5 minutes at 37° C. At this time each test tube was placed on ice and the appropriate drug solution or control was added. This was rapidly followed by the addition of the radiolabled amine (titrated noradrenaline or serotonin, 0.01 μM, specific activity about 13.5 Ci/mmol). The mixture was incubated for 10 minutes at 37° C. The incubations were then filtered and washed using a cell harvester and the radioactivity retained on the filters was measured using a scintillation counter. The percent inhibition of amine uptake compared to controls containing no drug was calculated. Reference: Maretin I. L., Baker G. B. and Mitchell, P. R. (1978). The effect of viloxaine hydrochloride on the transport of noradenaline, dopamine, 5-hydroxytryptamine and gamma-amino-butyric acid in rat brain tissue. Neuropharmacology 17:421-423.

[7] = test system: serotonin (5-HT) uptake into rat striatal prisms; assay: Inhibition of serotonin uptake in vitro; format: cell-based; set-up: dose or concentration left out as unconfirmed
Description: Animals were killed by decapitation and the hippocampus or striatum were removed and placed in ice cold incubation medium. […] 0.8 ml of ice cold prism of suspension per test tube was used. Each test tube was pre-incubated for 5 minutes at 37° C. At this time each test tube was placed on ice and the appropriate drug solution or control was added. This was rapidly followed by the addition of the radiolabled amine (titrated noradrenaline or serotonin, 0.01 μM, specific activity about 13.5 Ci/mmol). The mixture was incubated for 10 minutes at 37° C. The incubations were then filtered and washed using a cell harvester and the radioactivity retained on the filters was measured using a scintillation counter. The percent inhibition of amine uptake compared to controls containing no drug was calculated. […] The effect of viloxaine hydrochloride on the transport of noradenaline, dopamine, 5-hydroxytryptamine and gamma-amino-butyric acid in rat brain tissue.

| Molecule | IC50 [1] [µM] | % Inhibition Monoamine Oxidase-A ([2]; brain) [%] | % Inhibition Monoamine Oxidase-A ([2]; liver) [%] | effect on monoamine oxidase-A activity in the brain or liver [2] | IC50 [3] [µM] | % Inhibition Monoamine Oxidase-B ([4]; brain) [%] | % Inhibition Monoamine Oxidase-B ([4]; liver) [%] | effect on monoamine oxidase-B activity in the brain or liver [4] | protection against DSP-4-induced noradrenaline depletion [5] | % NA Restoration ([5]; Table 5 experiment) [%] | % inhibition NA uptake [6] [%] | % inhibition 5-HT uptake [7] [%] | % NA Restoration ([5]; Table 6 experiment) [%] | IC50 ([1]; in vitro, rat brain homogenate, read-out: IC50 for inhibition of monoamine oxidase A) [µM] |
| --- | --- | --- | --- | --- | --- | --- | --- | --- | --- | --- | --- | --- | --- | --- |
| C#CCNC(C)(C)Cc1ccccc1 [CVT-PP019, N-propargylphentermine] | 53 | −16.4 ± 4.9 | −20.1 ± 4.4 | did not significantly affect | 5.7 | −9.4 ± 3.0 | −10.1 ± 6.6 | did not significantly affect | significantly protected | 114.6 | 77 ± 3 | 68 ± 2 | – | – |
| (−)-deprenyl [reference compound] | – | – | – | – | – | – | – | – | – | 97.2 | – | – | 90.3 | – |
| CNCCCN1c2ccccc2CCc2ccccc21 [Desipramine, reference compound] | – | – | – | – | – | – | – | – | – | – | 99 ± 3 | – | – | – |
| NNCCc1ccccc1 [phenelzine.H2SO4, phenelzine, reference compound] | – | – | – | – | 26 | – | – | – | – | – | – | – | – | 130 |
| C#CCNC(C)(C)Cc1ccc(Cl)cc1 [CVT-PP022, p-chloro-N-propargylphentermine] | 160 | 2.5 ± 5.2 | 5.9 ± 4.1 | did not significantly affect | 4 | 17.5 ± 5.6 | 12.6 ± 5.3 | did not significantly affect | significantly protected | – | 93 ± 2 | 89 ± 1 | 70.5 | – |
